The results in this text go back to patent publication US11246856B2, “Methods of treating resistant cancers” (University of Maryland, Baltimore, priority 2017, dated 2022).

Entries after “also recorded” stand apart in the source; their conditions may differ.

In assay [1] the test system is A375-PLX-R cells. Kind of assay: Cell proliferation, PLX4032-resistant A375-PLX-R cells. Type of assay: cell-based. Conditions: FIG. 1A. As for the experimental part: A375, SK-MEL-5 and SK-MEL-28 cell lines were maintained in DMEM growth medium containing 10% FCS, 2 mM L-glutamine and 1 mM sodium pyruvate. The WM3248 cells were maintained in MCDB153:L15 (4:1) growth medium containing 2% FCS, […] insulin and 1.68 mM CaCl2. To create PLX4032-resistant cells, A375, SK-MEL-5, SK-MEL-28 and WM3248 cells were treated with […] in monolayer culture in growth medium for several weeks. The surviving cells were then expanded and cultured in increasing doses of PLX4032 up to […]. The resulting PLX4032-resistant cells, designated PLX4032-resistant (e.g., A375-PLX-R) were routinely maintained in the presence of […] PLX4032.

Assay [2] deals with A375 cells. Kind of assay: Immunoblot of signaling, cell cycle and apoptosis markers in A375 cells. The assay is classed as cell-based. Here is the method: (§1) Equivalent amounts of protein were electrophoresed on denaturing and reducing 10% polyacrylamide gels and transferred to nitrocellulose membrane. The membrane was blocked by 5% nonfat dry milk for one hour and incubated with 1:1000 primary antibody in 5% nonfat dry milk. Blots were rinsed in TBS-T and then incubated with secondary antibodies (1:5000) for 2 h. Secondary antibody binding was visualized using ECL Prime (Amersham) chemiluminescence detection technology. For immunostaining, cells were harvested, suspended in growth medium, and plated in LAB-TEK II Chamber Slide System. After 24 h, the cells were fixed with 4% paraformaldehyde at room temperature for 15 min, washed three with phosphate-buffered saline, in 0.1% Triton X-100 for 15 min, washed with phosphate-buffered saline, and blocked for 1 h with phosphate-buffered saline containing 7.5% fetal calf serum. Primary antibodies were added, and the slides incubated overnight at 4° C. Cells were then washed three times with phosphate-buffered saline and incubated 1 h with the appropriate Alexa Flour fluorescence probe-conjugated secondary antibody. After additional washing, the cells were stained with DAPI for 10 min prior to imaging.
For orientation: A western blot detects proteins with antibodies after separation by electrophoresis.

Assay [3] has as its system A375-PLX-R cells. Kind of assay: Immunoblot of ERK1/2 activity in A375-PLX-R cells. The assay is classed as cell-based. Conditions: TEAD intact versus knockdown, FIG. 3F. As for the experimental part:
as §1

Assay [4] has as its system A375 spheroid cell-derived tumors. Kind of assay: Tumor xenograft assay, A375 spheroid cell-derived tumors. Type of assay: in vivo, NSG mice. Here is the method:
(§2) Cells were grown for ten days as spheroids and a single cell suspension, prepared by trypsin digestion, was resuspended in phosphate buffered saline containing 30% Matrigel and 100 μl containing 0.1 million cells were injected subcutaneously at the two front flanks of NOD/scid/IL2 receptor gamma-knockout mice (NSG mice) using a 26.5 gauge needle. PLX4032 was dissolved in phosphate-buffered saline containing 10% DMSO and delivered at 20 mg/kg by oral gavage in […] three times per week (M/W/F). Verteporfin was dissolved in phosphate-buffered saline containing 10% DMSO and 0-100 mg/kg was delivered by intraperitoneal injection of […] three times per week (M/W/F). Five mice were used per group (two tumors per mouse) and treatment was initiated two days after tumor cell injection. Tumor growth was monitored by measuring tumor diameter and calculating tumor volume using the formula, volume=4/3π×(diameter/2)^3. Mice were euthanized by injection of 250 μl of a 2.5% stock of Avertin per mouse followed by cervical dislocation of the neck. Tumor samples were harvested to prepare extract for immunoblot and sections for immunostaining. These experiments were reviewed and approved by the University of Maryland-Baltimore Institutional Animal Care and Use Committee. The plotted values are mean±SEM and significance were determined using the students t-test.

Assay [5] concerns tumor-derived A375 cells. Kind of assay: Matrigel invasion of tumor-derived A375 cells. Type of assay: cell-based. Conditions: sensitive (A375) cells, invasion assayed without drug, FIG. 6G. As for the experimental part: (§3) Tumors were initiated and treated with PLX4032 or verteporfin as above. At 4 weeks, the tumors were removed, mechanically dissociated and dispersed as single cell suspensions with 0.25% trypsin for 10 min and plated as monolayer cultures. After 24 h, the cells were harvested and seeded at 25,000 cells/well atop a 0.1 ml matrigel layer in Millicell (1 cm diameter, […]) chambers in the presence of a serum gradient (38). After 18 h, the membranes were stained with DAPI and the nuclei of migrated cells were visualized by inverted fluorescence microscopy (38).

Assay [6] concerns tumor-derived A375-PLX-R cells. Kind of assay: Matrigel invasion of tumor-derived A375-PLX-R cells. The following applies: resistant (A375-PLX-R) cells, invasion assayed without drug, FIG. 6G. Type of assay: cell-based. As for the experimental part:
as §3

Assay [7] relates to A375 cells. Kind of assay: Immunofluorescence of YAP1/TAZ subcellular distribution. Type of assay: cell-based. Conditions: control versus PLX4032-treated A375 cells, FIG. 2D. Here is the method:
as §1

The test system of assay [8] is YAP1, TAZ and TEAD in A375 and A375-PLX-R cells. Kind of assay: YAP1/TAZ/TEAD mRNA and protein level after verteporfin, monolayer cells. The assay is classed as cell-based. Here is the method:
as §1
Total RNA was isolated using Illustra RNAspin mini kit (GE Healthcare), and 1 μg of RNA was used for cDNA synthesis. Gene expression was measured by real time PCR using Light Cycler 480 SYBR Green I Master Mix (04-707 516 001) from Roche Diagnostics (Indianapolis, Ind.). The signals were normalized using cyclophilin A control primers. The gene specific primers used for detection of mRNA levels were as follows: cyclophilin A (forward, 5′-[…] (SEQ ID NO: 3); reverse, 5′-[…] (SEQ ID NO: 4)), TAZ (forward, 5′-GTATCCCAGCCAATC TCG (SEQ ID NO: 5); reverse, 5′-TTCTGAGTGGGGTGGTTC (SEQ ID NO: 6)) and YAP1 (forward, 5′-[…] (SEQ ID NO: 7); reverse, 5′-[…], (SEQ ID NO: 8)) (11).
To understand the mechanism of verteporfin action, monolayer A375 and A375-PLX-R cells were treated with […] verteporfin for 24 h and the impact on YAP1/TAZ mRNA and protein level was monitored. […] The proteasome is known to regulate YAP1/TAZ level (29,30) and so whether the proteasome was responsible for the observed reductions was examined.

Assay [9] relates to melanoma cell tumor formation (MCS cells). Kind of assay: Tumor xenograft assay, verteporfin alone (FIGS. 6D-6F). The assay is classed as in vivo, NSG mice. Conditions: verteporfin intraperitoneal, tumor cell line not stated. As for the experimental part: as §2
The test system of assay [10] is tumor-derived cells. Kind of assay: Matrigel invasion of cells from verteporfin-treated tumors. Type of assay: cell-based. The following applies: FIG. 6H. As for the experimental part:
as §3

As for `CCCS(=O)(=O)Nc1ccc(F)c(C(=O)c2c[nH]c3ncc(-c4ccc(Cl)cc4)cc23)c1F` [PLX4032], in assay [1], the “proliferation of A375-PLX-R cells” value is “not suppressed”. In addition, the “apoptosis (cleaved PARP accumulation, procaspase 8 and 9 levels)” value in assay [2] was “enhances”. For the same compound, in assay [2] (FIGS. 3A-3B), the “cyclin B and cyclin A level” value is “reduced”; the “p21Cip1 and p27 level” value is recorded as “increased”. For the same compound, the “ERK1/2 signaling / phosphorylation” value in assay [2] (FIGS. 3A-3B, 3F) is reported as “suppressed; also recorded: reduced”. In addition, the ERK1/2 activity entry in [3] was “only reduced in A375-PLX-R cells following TEAD knockdown and PLX4032 treatment”. For the same compound, in assay [4] (PLX4032 20 mg/kg oral gavage three times per week, FIG. 6B), the tumor growth result was “suppressed”. Further, in assay [4] (PLX4032-treated A375 tumors, FIG. 6C), the “p21Cip1 level in tumors” value is reported as “slightly elevated”. Besides, the “matrigel invasion of tumor-derived cells after in vivo treatment” value (“matrigel invasion of tumor-derived cells” below) in assay [5] was “does not suppress”. The “matrigel invasion of tumor-derived cells” value in [6] is “does not suppress”. In assay [7], the YAP1 intracellular distribution result was “no major change”.

As to verteporfin, the “level of YAP1 or TAZ mRNA” value in assay [8] (1 mM verteporfin, 24 h, monolayer, FIG. 4F) is “did not impact”. In [8] (1 mM verteporfin, 24 h, monolayer, FIG. 4G), the “YAP1 and TAZ protein levels” value is recorded as “reduced”. For the same compound, the “TEAD transcription factor levels” value in assay [8] (verteporfin treatment, FIG. 4H) is reported as “reduced”. Besides, the “YAP1 and TAZ level in tumors” value in assay [9] (FIG. 6F) is “suppressed”. Moreover, in assay [9] (FIGS. 6D-6E), the “tumor size / tumor formation” value was “reduced”. Besides, the “matrigel invasion of tumor-derived cells” value in assay [10] is “reduced”.
